Measurements taken from patent EP4786486A1, “PEPTIDES FOR TREATING CARDIAC DISEASES” (Universidad Complutense De Madrid, priority 2023, dated 2025).
Where a SMILES comes first, the peptide text is derived from it. The star is where a group is joined. FITC = O=C1OC2(c3ccc(O)cc3Oc3cc(O)ccc32)c2ccc(NC(=S)*)cc21; Palmitoyl = CCCCCCCCCCCCCCCC(=O)*

Columns and labels:
HEK293 cells = experiment: Access to the cell interior of fluorescent peptides, fluorescence microscopy; type: cell-based; conditions: 24 hours, 10 µM, green fluorescent signal
human Nav1.5 channels = target: T1, human Nav1.5 channels (Homo sapiens, UniProt Q14524); experiment: INa density, whole-cell patch-clamp in CHO cells co-transfected with Nav1.5 and the cDNA encoding the peptide; type: cell-based; conditions: vs. cells transfected only with Nav1.5 channels, various membrane potentials, P<0.05
T1 construct: expressed in transfected cells; host or cells: CHO (Chinese hamster ovary) cells
T1 sequence (Q14524 1-2015 isoform Q14524-2): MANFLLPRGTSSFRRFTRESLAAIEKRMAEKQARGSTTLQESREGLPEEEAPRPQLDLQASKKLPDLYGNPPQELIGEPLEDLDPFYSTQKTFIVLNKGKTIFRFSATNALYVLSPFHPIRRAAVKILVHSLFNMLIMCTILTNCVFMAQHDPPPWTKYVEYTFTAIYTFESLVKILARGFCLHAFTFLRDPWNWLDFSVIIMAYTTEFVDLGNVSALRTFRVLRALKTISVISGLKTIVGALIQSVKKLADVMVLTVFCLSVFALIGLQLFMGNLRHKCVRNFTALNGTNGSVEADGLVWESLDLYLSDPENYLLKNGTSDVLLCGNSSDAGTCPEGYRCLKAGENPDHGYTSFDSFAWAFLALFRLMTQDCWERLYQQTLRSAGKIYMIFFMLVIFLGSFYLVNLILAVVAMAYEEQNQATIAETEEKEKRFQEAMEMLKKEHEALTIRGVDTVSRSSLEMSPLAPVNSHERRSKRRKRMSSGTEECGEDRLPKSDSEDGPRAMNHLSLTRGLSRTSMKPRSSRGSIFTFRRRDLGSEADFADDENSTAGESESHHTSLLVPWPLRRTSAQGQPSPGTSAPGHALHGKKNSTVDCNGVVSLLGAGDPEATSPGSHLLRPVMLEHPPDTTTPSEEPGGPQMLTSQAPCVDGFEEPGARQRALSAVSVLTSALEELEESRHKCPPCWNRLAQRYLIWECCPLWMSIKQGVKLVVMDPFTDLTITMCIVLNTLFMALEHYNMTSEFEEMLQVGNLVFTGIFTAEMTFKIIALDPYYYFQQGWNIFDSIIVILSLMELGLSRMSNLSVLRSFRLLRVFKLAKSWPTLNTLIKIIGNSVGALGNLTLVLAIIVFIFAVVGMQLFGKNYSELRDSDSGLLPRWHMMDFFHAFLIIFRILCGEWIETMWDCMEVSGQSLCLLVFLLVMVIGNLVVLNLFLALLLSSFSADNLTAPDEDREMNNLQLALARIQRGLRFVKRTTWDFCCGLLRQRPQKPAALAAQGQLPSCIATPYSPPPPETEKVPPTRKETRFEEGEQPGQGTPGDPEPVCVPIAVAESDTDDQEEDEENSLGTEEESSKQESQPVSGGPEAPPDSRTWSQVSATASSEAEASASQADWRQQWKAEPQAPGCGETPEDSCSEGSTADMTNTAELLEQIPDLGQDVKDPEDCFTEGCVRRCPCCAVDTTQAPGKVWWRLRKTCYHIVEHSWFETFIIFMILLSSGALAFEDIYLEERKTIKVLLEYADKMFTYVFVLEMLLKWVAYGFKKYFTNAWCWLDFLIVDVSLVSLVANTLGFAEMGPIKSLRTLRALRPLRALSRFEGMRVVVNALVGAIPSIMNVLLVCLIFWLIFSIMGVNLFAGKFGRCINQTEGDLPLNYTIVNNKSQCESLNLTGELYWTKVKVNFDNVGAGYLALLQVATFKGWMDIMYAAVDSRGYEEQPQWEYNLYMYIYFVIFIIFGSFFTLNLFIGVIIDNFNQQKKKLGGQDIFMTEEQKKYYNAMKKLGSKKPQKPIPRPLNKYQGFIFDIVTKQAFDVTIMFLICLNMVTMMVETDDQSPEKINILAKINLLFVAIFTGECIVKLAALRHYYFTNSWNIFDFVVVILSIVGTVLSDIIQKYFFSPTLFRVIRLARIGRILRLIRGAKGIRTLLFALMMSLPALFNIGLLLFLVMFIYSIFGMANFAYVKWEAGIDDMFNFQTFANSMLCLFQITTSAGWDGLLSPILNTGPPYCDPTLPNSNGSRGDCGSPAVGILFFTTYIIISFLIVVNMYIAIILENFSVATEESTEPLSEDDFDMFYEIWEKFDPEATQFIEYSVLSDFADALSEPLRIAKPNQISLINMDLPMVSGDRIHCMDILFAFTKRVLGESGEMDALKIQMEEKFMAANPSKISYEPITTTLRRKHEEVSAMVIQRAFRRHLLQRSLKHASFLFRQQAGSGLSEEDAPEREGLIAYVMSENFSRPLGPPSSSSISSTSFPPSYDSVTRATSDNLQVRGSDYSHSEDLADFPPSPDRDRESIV
Procedure: (§1) To analyse the effect of the peptides designed in example 1 on INa and IK1, the cDNA that encodes SEQ ID NO: 3 or SEQ ID NO: 4, described in SEQ ID NO: 5 and 20, respectively, was cloned into a pcDNA3.1^(+)® vector (Invitrogen) for transfection of Chinese hamster ovary (CHO) cells that were in turn transfected with the cDNA that encodes the human Nav1.5 channels (SEQ ID NO: 21). The CHO cells were further co-transfected with the EBO-pcD leu 2 vector (0.5 µg), which encodes the expression of the CD8 surface antigen. The subsequent addition of anti-CD8 antibody, bonded to Dynabeads M450® microspheres, allowed the cells that had been transfected to be identified. […] The currents were recorded at 20-22°C using an Axopatch 200B amplifier, filtered at half the sampling frequency and stored in a computer for further analysis. […] The capacitive current artefacts generated after the application of pulses from 0 mV to +10 mV were recorded at 50 kHz (filtered at 10 kHz) to calculate the capacitance of the cell, the access resistance and the input impedance. […] INa was recorded by applying 50 ms pulses from a holding potential of -120 mV to potentials between -80 and +50 mV in 5 mV increments. […]

[1] = Conformational study by circular dichroism (helicity); type: physicochemical; conditions: for Helicity in 60:40 H2O/TFE (%) / Helicity in H2O (%): circular dichroism, 10 µM, 5°C
Procedure: Circular dichroism spectra were recorded in aqueous solution and in a 60:40 H2O:trifluoroethanol (TFE) mixture. The concentration used was 10 µM and the temperature (T) was adjusted to 5°C. Measurements were made between 190 and 250 nm using a 0.1 cm optical pitch cell. The experiments were carried out at a scanning rate of 50 nm/min, a response time of 2 s and a bandwidth of 1 nm. The spectra obtained are the average of 4 sweeps to which the baseline was corrected.
To calculate helicity, the equation [θ]222/[θ]max. was used, where [θ]max = (-44000+250T) ([…]). As a finite length correction value (k), the value of k = 4 was taken, while n refers to the number of residues in the peptides. Table 6. Helicity observed by circular dichroism for the peptides studied.

[2] = tested on: human cardiac Nav1.5 channels; experiment: INa by whole-cell patch-clamp in CHO cells incubated with synthetic peptide; type: cell-based; conditions: CHO cells expressing Nav1.5, incubated 24 hours, 10 µM, vs untreated control cells
Procedure: as §1

[3] = Stability in human blood serum, UPLC-MS; type: in vitro ADME; conditions: 37°C
Procedure: A 1 mM dilution of the peptide in water was prepared and 0.5 ml was taken and mixed with 0.5 ml of human serum. The resulting solution was incubated for 72 hours at 37°C. After 24 hours and 72 hours, 120 µl aliquots were taken and treated with 20 µl trifluoroacetic acid to precipitate the proteins. After 30 minutes at 4°C, the mixture was centrifuged at 13000 g and 4°C. The supernatant, once filtered, was analysed by UPLC-MS using a C18 Bridge column (3.0 mm x 50 mm, 2.5 µm) and a gradient of 15 and 50% CH3CN (0.1% formic acid) in H2O (0.1% formic acid) over 5 minutes.

For `CC[C@H](C)[C@H](NC(=O)[C@H](C)NC(=O)[C@H](C)NC(=O)[C@H](CC(C)C)NC(=O)[C@H](CO)NC(=O)[C@H](CCC(=O)O)NC(=O)[C@H](CCCNC(=N)N)NC(=O)[C@@H](NC(=O)[C@H](Cc1ccccc1)NC(=O)[C@H](CCCNC(=N)N)NC(C)=O)[C@@H](C)O)C(=O)N[C@@H](CCC(=O)O)C(=O)N[C@@H](CCCCNC(=S)Nc1ccc2c(c1)C(=O)OC21c2ccc(O)cc2Oc2cc(O)ccc21)C(N)=O` [Ac-SEQ ID NO: 23(SF)-NH2, Ac-RFTRESLAAlEK(SF)-NH2] (Ac-RFTRESLAAIEK(FITC)-NH2), the “ability to penetrate into the cell interior” value (HEK293 cells) was “not able to penetrate”.
For “EKRMAEKQARGSTTL (listed as Homo sapiens) [SEQ ID NO: 4, 15-amino acid peptide, amino acids 25-39 of human Nav1.5]”, the “density of INa” value (human Nav1.5 channels) was “did not”.
For “Ac-RFTRESLAAIE-NH2 [Ac-SEQ ID NO: 3-NH2, Ac-RFTRESLAAIE-NH2]”, the “Helicity in 60:40 H2O/TFE (%)” value [1] was 32.3% and the “Helicity in H2O (%)” value [1] was 2.7%.
With “Pal-RFTRESLAAIEK-NH2 (Palmitoyl-RFTRESLAAIEK-NH2; SMILES CCCCCCCCCCCCCCCC(=O)N[C@@H](CCCNC(=N)N)C(=O)N[C@@H](Cc1ccccc1)C(=O)N[C@H](C(=O)N[C@@H](CCCNC(=N)N)C(=O)N[C@@H](CCC(=O)O)C(=O)N[C@@H](CO)C(=O)N[C@@H](CC(C)C)C(=O)N[C@@H](C)C(=O)N[C@@H](C)C(=O)N[C@H](C(=O)N[C@@H](CCC(=O)O)C(=O)N[C@@H](CCCCN)C(N)=O)[C@@H](C)CC)[C@@H](C)O) [Pal-SEQ ID NO: 23-NH2]” the INa [2] was “statistically significantly increase INa”.
In the case of “Ac-FTRESLAAIEKR-NH2 [Ac-SEQ ID NO: 26-NH2, Ac-FTRESLAAIEKR-NH2]”, the “Helicity in 60:40 H2O/TFE (%)” value [1] is reported as 35.5%, the “Helicity in H2O (%)” value [1] is reported as 10.8% and the remaining at 24 h, 0.5 mM ([3]; human blood serum diluted 50:50 with water, human blood serum/H2O (50:50), after 24 hours of incubation, read-out: peptide remained unchanged) is reported as 82%. For the same compound, the half-life ([3]; human blood serum, estimated taking into account serum concentration of 50%) was 27 h.
For “Ac-FTRESLAAIEK-NH2 [Ac-SEQ ID NO: 25-NH2, Ac-FTRESLAAIEK-NH2]”, the “Helicity in 60:40 H2O/TFE (%)” value [1] was 46.2%, the “Helicity in H2O (%)” value [1] was 10.7% and the “increase in helicity in H2O” value ([1]; compared with Ac-SEQ ID NO: 3-NH2) was 8%.
For `CCCCCCCCCCCCCCCC(=O)N[C@@H](CCCNC(=N)N)C(=O)N[C@@H](Cc1ccccc1)C(=O)N[C@H](C(=O)N[C@@H](CCCNC(=N)N)C(=O)N[C@@H](CCC(=O)O)C(=O)N[C@@H](CO)C(=O)N[C@@H](CC(C)C)C(=O)N[C@@H](C)C(=O)N[C@@H](C)C(=O)N[C@H](C(=O)N[C@@H](CCC(=O)O)C(=O)N[C@@H](CCCCNC(=S)Nc1ccc2c(c1)C(=O)OC21c2ccc(O)cc2Oc2cc(O)ccc21)C(N)=O)[C@@H](C)CC)[C@@H](C)O` [Pal-SEQ ID NO: 23(SF)-NH2, Pal-RFTRESLAAIEK(SF)-NH2] (Palmitoyl-RFTRESLAAIEK(FITC)-NH2), the “ability to penetrate into the cell interior” value (HEK293 cells) was “good ability to penetrate”.
For “Pal-FTRESLAAIEK-NH2 (Palmitoyl-FTRESLAAIEK-NH2; SMILES CCCCCCCCCCCCCCCC(=O)N[C@@H](Cc1ccccc1)C(=O)N[C@H](C(=O)N[C@@H](CCCNC(=N)N)C(=O)N[C@@H](CCC(=O)O)C(=O)N[C@@H](CO)C(=O)N[C@@H](CC(C)C)C(=O)N[C@@H](C)C(=O)N[C@@H](C)C(=O)N[C@H](C(=O)N[C@@H](CCC(=O)O)C(=O)N[C@@H](CCCCN)C(N)=O)[C@@H](C)CC)[C@@H](C)O) [Pal-SEQ ID NO: 25-NH2]”, the INa [2] was “statistically significantly increase INa”.
